{
  "source": "paper PMC12454639",
  "about": "“Direct disassembly of α-syn preformed fibrils into α-syn monomers by an all-D-peptide” (NPJ Parkinson's Disease, 2025)",
  "key": {"[1]": {"system": "α-synuclein monomer seeded with small α-syn PFF", "assay": "CD spectroscopy of the seeded aggregation assay", "assay_type": "biochemical", "conditions": "30 µM SVD-1a, 500 nM PFF, 15 µM α-syn monomer, PBS pH 7.4, 37 °C, 24 h", "method": "Far-UV circular dichroism (CD) data were collected using a Jasco J-1100 spectropolarimeter (Jasco, GE). 350 µl samples were pooled and loaded into a high precision quartz cuvette with a path length of 1 mm (Hellma group, GE). A scan speed of 20 nm/min with five accumulations per sample was performed using far UV wavelengths from 260 to 190 nm. Baseline was corrected by subtracting measurements of the reference sample only.\nSupplementary Fig. 13: Analysis of the seeded aggregation assay in the presence and absence of SVD-1a using circular dichroism (CD) spectroscopy. Small α-syn PFF (500 nM) were incubated in PBS (pH 7.4) at 37 °C under quiescent conditions for 24 hours, either alone or in the presence of 15 µM α-synuclein monomer and/or 30 µM SVD-1a. For each condition and time point, three replicates (each 120 µl) were pooled and analyzed by CD spectroscopy at 0, 2, 8, and 24 hours. Far-UV ellipticity was measured in a quartz cuvette (path length = 10 mm) using a J-1100 CD spectrometer (Jasco, GE). […] (D) Co-incubation of 500 nM α-synuclein PFFs with 15 µM α-synuclein monomer induced a structural transition towards β-sheet formation, as reflected in the CD spectrum (referenced to spectrum in (A))."}, "α-syn monomer": {"system": "α-syn monomer", "assay": "CD secondary structure analysis of de novo aggregation", "assay_type": "biochemical", "conditions": "10 µM α-syn + 20 µM SVD-1a (two-fold molar excess), 7 days", "method": "Fig. 7 De novo aggregation analysis of α-syn in the presence and absence of SVD-1a. A De novo ThT assay of 10 µM α-syn with and without 20 µM SVD-1a. ThT fluorescence progression was measured in a 96-well non-binding half-area plate (Corning, USA) with a FLUOStar plate reader (BMG labtech, GE) at λex = 448 nm and λem = 482 nm with 300 rpm continuous orbital shaking between reads. For induction of aggregation, one borosilicate bead per well was added (d = 3 mm, Hilgenberg, GE). Data are shown as mean values with ±SD (n = 5). B CD secondary structure analysis of de novo aggregation samples. Samples were incubated as described in (A) without added ThT (n = 3) and subsequently pooled for CD analysis. Far-UV ellipticity of the samples was measured in a quartz cuvette (l = 10 mm) in a J-1100 CD-spectrometer (Jasco, GE). In addition to (A), a sample with 20 µM SVD-1a alone was incubated under identical conditions and later used as a reference for the sample with α-syn and SVD-1a. For this sample (α-syn + SVD-1a (after incubation)), the SVD-1a reference subtracted CD spectrum is shown. […] D α-Syn in the flow through (MWCO < 100 kDa) was quantified using an α-syn specific ELISA (BioLegend, Human α-Synuclein (Colorimetric), 448607, n = 3). E Retentate and flow-through samples were analyzed using SDS–PAGE with silver staining. […]"}},
  "note": "“Also recorded” adds a separate entry of the source. Square brackets hold non-standard residues; d marks the D form. Peptide text beside a SMILES is read from it.",
  "data": [
    {"smiles": "CC[C@@H](C)[C@@H](NC(=O)[C@@H](Cc1c[nH]cn1)NC(=O)[C@@H](CCC(=O)O)NC(=O)[C@@H](CCC(N)=O)NC(=O)[C@@H](Cc1c[nH]c2ccccc12)NC(=O)[C@@H](Cc1ccc(O)cc1)NC(=O)[C@H](NC(=O)[C@@H](CCC(=O)O)NC(=O)[C@@H](Cc1c[nH]cn1)NC(=O)[C@H](NC(=O)[C@H]1CCCN1C(=O)[C@@H](CC(C)C)NC(=O)[C@H](N)CCCNC(=N)N)[C@H](C)O)[C@H](C)O)C(=O)N[C@H](Cc1c[nH]c2ccccc12)C(=O)N[C@H](Cc1c[nH]cn1)C(=O)N[C@H](C)C(=O)N[C@H](CCCNC(=N)N)C(=O)N[C@H](CCCNC(=N)N)C(=O)N[C@H](CCCNC(=N)N)C(=O)N[C@H](CCCNC(=N)N)C(=O)N[C@H](CCCNC(=N)N)C(N)=O", "note": "[SVD-1a] (H-[dR][dL][dP][dT][dH][dE][dT][dY][dW][dQ][dE][dH][dI][dW][dH][dA][dR][dR][dR][dR][dR]-NH2)", "values": [
      {"measurement": "α-syn secondary structure under seeded conditions", "setting": "[1]", "result": "stabilized the α-synuclein monomer in its random coil conformation throughout the incubation period"},
      {"measurement": "α-syn secondary structure after de novo aggregation (CD)", "setting": "α-syn monomer", "result": "no spectrum shift towards a beta-sheet spectrum was observed; also recorded: fully stabilizes monomeric α-syn in its random coil secondary structure after 7 days of incubation"}
    ]}
  ]
}
